Patent US12275731B2, “Azaindole inhibitors of wild-type and mutant forms of LRRK2” (DANA-FARBER CANCER INSTITUTE, INC., priority 2018, dated 2025)

Experiments:
Experiment in all cases: KinomeScan profiling
Assay type in all cases: binding
[1] = molecular target: MET (Homo sapiens, UniProt P08581); conditions: read-out: % control
Outline: (§1)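 The panel spans 468 kinases, and each inventive compound was applied at 1 μM from DMSO. Lower % control means stronger binding; the activity cut-off is set at less than 35%.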

[2] = molecular target: T1, ZAP70 (Homo sapiens, UniProt P43403); conditions: ZAP70, 1 μM; read-out: % control
T1 sequence (P43403 1-619): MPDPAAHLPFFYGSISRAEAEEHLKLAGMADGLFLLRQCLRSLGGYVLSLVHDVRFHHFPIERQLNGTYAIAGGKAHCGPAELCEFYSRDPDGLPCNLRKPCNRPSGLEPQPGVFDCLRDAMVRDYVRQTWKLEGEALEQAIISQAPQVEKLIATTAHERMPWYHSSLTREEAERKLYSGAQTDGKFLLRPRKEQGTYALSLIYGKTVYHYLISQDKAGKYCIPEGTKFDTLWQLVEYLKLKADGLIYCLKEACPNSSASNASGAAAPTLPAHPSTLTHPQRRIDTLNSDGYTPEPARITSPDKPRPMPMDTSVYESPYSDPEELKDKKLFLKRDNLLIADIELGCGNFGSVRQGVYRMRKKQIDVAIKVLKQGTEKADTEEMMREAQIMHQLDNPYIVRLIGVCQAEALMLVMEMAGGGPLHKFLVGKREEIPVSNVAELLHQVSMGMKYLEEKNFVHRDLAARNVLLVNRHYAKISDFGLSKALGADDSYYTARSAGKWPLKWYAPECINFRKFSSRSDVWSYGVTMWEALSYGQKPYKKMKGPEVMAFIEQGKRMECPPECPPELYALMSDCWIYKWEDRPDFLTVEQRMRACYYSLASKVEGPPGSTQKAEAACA
Outline: as §1

[3] = molecular target: YES (Homo sapiens, UniProt P07947); conditions: read-out: % control
Sequence of YES (P07947 whole entry): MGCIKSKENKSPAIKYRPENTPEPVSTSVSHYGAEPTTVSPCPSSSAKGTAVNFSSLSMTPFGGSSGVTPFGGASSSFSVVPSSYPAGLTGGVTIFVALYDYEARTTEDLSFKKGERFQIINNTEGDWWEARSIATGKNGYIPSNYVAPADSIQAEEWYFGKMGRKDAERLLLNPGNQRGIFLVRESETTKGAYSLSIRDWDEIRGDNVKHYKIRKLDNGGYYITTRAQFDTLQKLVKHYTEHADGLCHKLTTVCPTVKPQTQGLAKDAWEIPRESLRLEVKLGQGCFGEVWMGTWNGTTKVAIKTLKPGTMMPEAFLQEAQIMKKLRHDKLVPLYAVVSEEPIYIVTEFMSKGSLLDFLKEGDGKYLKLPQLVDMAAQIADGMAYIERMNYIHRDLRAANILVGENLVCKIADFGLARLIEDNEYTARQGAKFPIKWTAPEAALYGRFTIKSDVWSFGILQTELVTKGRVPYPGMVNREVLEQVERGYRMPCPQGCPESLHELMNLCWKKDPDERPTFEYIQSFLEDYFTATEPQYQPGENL
Outline: as §1

[4] = molecular target: CDK9 (Homo sapiens, UniProt P50750); conditions: CDK9, 1 μM; read-out: % control
Sequence of CDK9 (P50750 whole entry): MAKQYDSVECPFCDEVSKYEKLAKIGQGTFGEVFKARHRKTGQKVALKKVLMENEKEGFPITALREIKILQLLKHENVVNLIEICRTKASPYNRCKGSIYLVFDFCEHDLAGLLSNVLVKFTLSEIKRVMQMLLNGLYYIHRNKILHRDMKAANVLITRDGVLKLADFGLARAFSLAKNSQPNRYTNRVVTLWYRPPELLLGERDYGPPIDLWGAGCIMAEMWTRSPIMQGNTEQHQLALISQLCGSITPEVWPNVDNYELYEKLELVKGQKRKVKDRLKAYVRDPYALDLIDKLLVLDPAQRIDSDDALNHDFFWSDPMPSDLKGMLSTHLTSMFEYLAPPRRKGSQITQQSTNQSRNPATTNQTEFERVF
Outline: as §1

[5] = molecular target: T2, GRK2 (Homo sapiens, UniProt P25098); conditions: GRK2, 1 μM; read-out: % control
T2 sequence (P25098 1-689): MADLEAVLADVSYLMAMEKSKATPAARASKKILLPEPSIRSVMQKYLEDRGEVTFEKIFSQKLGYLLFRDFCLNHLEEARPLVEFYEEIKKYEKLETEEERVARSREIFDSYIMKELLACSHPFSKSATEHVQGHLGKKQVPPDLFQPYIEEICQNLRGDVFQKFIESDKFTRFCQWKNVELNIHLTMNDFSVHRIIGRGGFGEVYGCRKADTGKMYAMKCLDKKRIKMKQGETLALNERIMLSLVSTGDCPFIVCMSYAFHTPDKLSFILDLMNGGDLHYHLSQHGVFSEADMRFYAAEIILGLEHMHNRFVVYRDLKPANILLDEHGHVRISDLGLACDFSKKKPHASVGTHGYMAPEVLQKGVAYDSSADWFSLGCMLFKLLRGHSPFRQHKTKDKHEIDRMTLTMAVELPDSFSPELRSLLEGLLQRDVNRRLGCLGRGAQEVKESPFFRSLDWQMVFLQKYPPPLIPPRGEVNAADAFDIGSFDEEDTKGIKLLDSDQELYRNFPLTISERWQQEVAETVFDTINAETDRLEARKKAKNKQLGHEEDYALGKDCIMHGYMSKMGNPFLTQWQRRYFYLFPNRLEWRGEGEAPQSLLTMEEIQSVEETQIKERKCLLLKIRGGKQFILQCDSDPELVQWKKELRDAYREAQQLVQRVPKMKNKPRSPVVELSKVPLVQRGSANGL
Outline: as §1

[6] = molecular target: MST3 (Homo sapiens, UniProt Q9Y6E0); conditions: MST3, 1 μM; read-out: % control
Sequence of MST3 (Q9Y6E0 whole entry): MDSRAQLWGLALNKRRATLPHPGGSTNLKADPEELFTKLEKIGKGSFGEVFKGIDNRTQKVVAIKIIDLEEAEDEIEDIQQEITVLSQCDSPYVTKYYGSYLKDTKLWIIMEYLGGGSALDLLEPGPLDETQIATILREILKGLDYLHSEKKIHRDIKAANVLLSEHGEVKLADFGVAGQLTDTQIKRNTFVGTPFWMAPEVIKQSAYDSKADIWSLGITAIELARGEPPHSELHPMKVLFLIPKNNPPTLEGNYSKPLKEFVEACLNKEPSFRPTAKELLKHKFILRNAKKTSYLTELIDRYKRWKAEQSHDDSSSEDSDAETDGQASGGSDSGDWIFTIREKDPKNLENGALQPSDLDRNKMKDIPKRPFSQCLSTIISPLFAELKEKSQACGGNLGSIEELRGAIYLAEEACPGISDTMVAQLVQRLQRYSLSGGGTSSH
Outline: as §1

[7] = molecular target: T3, PRKCI (Homo sapiens, UniProt P41743); conditions: read-out: % control
T3 sequence (P41743 1-596): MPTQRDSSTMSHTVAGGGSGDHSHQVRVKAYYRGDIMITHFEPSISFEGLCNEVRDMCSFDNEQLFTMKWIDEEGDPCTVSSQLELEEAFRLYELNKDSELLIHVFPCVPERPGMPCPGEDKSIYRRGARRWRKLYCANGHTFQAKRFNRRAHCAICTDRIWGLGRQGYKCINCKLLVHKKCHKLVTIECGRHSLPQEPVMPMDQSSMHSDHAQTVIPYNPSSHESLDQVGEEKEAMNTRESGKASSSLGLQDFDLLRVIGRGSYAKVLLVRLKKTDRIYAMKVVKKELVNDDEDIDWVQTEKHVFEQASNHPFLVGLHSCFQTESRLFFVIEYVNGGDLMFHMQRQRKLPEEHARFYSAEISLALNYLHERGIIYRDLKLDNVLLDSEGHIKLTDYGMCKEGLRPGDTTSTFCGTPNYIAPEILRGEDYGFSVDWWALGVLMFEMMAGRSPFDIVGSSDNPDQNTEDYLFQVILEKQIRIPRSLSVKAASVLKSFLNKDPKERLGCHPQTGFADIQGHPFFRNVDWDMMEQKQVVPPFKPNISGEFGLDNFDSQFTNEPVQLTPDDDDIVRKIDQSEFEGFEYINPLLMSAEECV
Outline: as §1

Sequence of MET (P08581 25-1390): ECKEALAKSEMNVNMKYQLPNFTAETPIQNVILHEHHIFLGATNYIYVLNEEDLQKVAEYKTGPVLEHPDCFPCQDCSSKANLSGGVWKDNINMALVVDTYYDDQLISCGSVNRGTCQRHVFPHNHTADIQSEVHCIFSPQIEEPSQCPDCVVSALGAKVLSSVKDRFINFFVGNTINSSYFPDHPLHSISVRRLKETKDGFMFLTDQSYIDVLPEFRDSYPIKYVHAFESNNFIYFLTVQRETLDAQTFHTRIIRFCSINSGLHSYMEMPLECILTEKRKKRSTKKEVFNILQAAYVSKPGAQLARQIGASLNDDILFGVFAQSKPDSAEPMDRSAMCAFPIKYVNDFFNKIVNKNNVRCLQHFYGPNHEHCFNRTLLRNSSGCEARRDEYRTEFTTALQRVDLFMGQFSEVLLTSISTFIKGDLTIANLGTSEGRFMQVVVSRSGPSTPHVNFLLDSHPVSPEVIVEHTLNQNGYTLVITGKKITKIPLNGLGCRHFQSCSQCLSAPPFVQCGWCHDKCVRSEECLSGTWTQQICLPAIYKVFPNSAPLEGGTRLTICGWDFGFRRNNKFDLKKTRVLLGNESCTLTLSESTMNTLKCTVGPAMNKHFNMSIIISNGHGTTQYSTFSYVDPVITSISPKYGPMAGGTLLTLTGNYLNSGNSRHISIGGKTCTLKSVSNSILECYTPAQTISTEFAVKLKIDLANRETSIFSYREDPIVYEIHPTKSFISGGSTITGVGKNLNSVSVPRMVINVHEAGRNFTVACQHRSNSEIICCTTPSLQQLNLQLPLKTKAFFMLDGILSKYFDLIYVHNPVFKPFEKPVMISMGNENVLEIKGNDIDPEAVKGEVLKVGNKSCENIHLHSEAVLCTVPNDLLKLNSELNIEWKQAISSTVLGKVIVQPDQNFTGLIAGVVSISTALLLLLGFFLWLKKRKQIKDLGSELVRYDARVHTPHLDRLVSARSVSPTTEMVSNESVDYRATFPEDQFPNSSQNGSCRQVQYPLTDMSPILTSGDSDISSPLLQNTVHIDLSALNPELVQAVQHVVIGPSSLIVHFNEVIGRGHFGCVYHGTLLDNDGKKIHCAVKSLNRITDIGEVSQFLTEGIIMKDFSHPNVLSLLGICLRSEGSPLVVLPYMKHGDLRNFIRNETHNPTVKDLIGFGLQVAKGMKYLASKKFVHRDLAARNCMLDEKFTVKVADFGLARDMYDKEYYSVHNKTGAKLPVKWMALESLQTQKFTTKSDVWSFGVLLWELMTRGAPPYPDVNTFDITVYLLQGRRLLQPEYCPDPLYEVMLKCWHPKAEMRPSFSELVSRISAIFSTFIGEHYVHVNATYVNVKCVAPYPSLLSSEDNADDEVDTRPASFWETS

Row | SMILES | remaining binding at 1 µM [1] [%] | remaining binding at 1 µM [2] [%] | remaining binding at 1 µM [3] [%] | remaining binding at 1 µM [4] [%] | remaining binding at 1 µM [5] [%] | remaining binding at 1 µM [6] [%] | remaining binding at 1 µM [7] [%]
1 | CNc1c(-c2cnn([C@H]3CCN(C(C)=O)C[C@@H]3F)c2)cnc2[nH]cc(Cl)c12 [Compound 77, 1-((3S,4S)-4-(4-(3-chloro-4-(methylamino)-1H-pyrrolo[2,3-b]pyridin-5-yl)-1H-pyrazol-1-yl)-3-fluoropiperidin-1-yl)ethan-1-one] | 63 | 100 | 100 | 83 | 93 | 72 | 67
2 | O=C(c1ccc(-c2cnc3[nH]cc(Cl)c3c2NC2CCCC2)cc1)N1CCC(N2CCOCC2)CC1 [Compound 101, (4-(3-chloro-4-(cyclopentylamino)-1H-pyrrolo[2,3-b]pyridin-5-yl)phenyl)(4-morpholinopiperidin-1-yl)methanone] | 16 | 55 | 100 | 96 | 100 | 86 | 100
3 | CNc1c(-c2ccc(C(=O)N3CCC(N4CCOCC4)CC3)cc2)cnc2[nH]cc(Cl)c12 [Compound 96, (4-(3-chloro-4-(methylamino)-1H-pyrrolo[2,3-b]pyridin-5-yl)phenyl)(4-morpholinopiperidin-1-yl)methanone] | 84 | 100 | 100 | 87 | 94 | 74 | 69
